Measurements published in patent US9492789B2, “Draw solute for forward osmosis, forward osmosis water treatment device, and forward osmosis method for water treatment” (Samsung Electronics Co., Ltd., priority 2012, dated 2016).

Tests used:
[1] = Solubility change of 10 wt % osmosis draw solution on slow heating (LCST, separation temperature, reversibility); format: physicochemical
Excerpt: Each osmosis draw solution including the compounds of Examples 1 to 5 and Comparative Examples 1 and 2 at a concentration of 10 wt % is slowly heated from room temperature, and the solubility change of the solution is observed according to the temperature. The term “lower critical solution temperature (LCST)” indicates the temperature at which the solution begins to suddenly turn opaque, and the term “separation temperature” indicates the temperature in which the solution begins to be precipitated.

[2] = Osmotic pressure analysis of osmosis draw solution by freezing point depression; format: physicochemical; conditions: draw solution concentration 10 wt %
Method: Osmosis draw solutions having the various concentrations shown in the following Table 1 are prepared, and the osmotic pressure of the osmosis draw solution including the NIPAam oligomer prepared from Examples 1 to 4 is analyzed using the osmotic pressure measurer according to a freezing point depression.

C=CC(=O)NC(C)C [Comparative Example 1, N-isopropylacrylamide]
LCST ([1]; 10 wt % solution heated from room temperature, temperature at which solution begins to suddenly turn opaque): 36-37 °C
Reversibility ([1]; @ 25° C.): ◯
Osmotic pressure, Osmol concentration [2]: 738 mOsmol/kg
Osmotic pressure, atm (equivalents) [2]: 18 atm
